The values that follow come from ChEMBL document CHEMBL3751776, “Expanding the structural diversity of diarylureas as multi-target tyrosine kinase inhibitors” (Bioorg Med Chem, 2016).

Each structure is given as a SMILES string.

In experiment [1] the target is Vascular endothelial growth factor receptor 2 (Homo sapiens, UniProt P35968). The experiment in a line: Inhibition of KDR (unknown origin) incubated for 1 hr assessed as luminescence changes using ATP by ADP-Glo Kinase assay.
A short description of experiment [2]: Antiproliferative activity against human SMMC7721 cells assessed as growth inhibition after 48 hrs by MTT assay. The format is functional, cell-based. Particulars: SMMC-7721, 48 h. A general note: Formazan colour is commonly taken as a measure of viable cells.
In experiment [3] the target is Fibroblast growth factor receptor 1 (Homo sapiens, UniProt P11362). The experiment in a line: Inhibition of FGFR1 (unknown origin) incubated for 1 hr assessed as luminescence changes using ATP by ADP-Glo Kinase assay.
The target of experiment [4] is Epidermal growth factor receptor (Homo sapiens, UniProt P00533). The experiment in a line: Inhibition of EGFR (unknown origin) incubated for 1 hr assessed as luminescence changes using ATP by ADP-Glo Kinase assay.
A further experiment has as its system A549. Description: Antiproliferative activity against human A549 cells assessed as growth inhibition after 48 hrs by MTT assay. The format is functional, cell-based. As to conditions: A549, 48 h.

Usually IC50 stands for the concentration that inhibits the measured activity by half.

Sequence of Epidermal growth factor receptor (P00533 whole entry): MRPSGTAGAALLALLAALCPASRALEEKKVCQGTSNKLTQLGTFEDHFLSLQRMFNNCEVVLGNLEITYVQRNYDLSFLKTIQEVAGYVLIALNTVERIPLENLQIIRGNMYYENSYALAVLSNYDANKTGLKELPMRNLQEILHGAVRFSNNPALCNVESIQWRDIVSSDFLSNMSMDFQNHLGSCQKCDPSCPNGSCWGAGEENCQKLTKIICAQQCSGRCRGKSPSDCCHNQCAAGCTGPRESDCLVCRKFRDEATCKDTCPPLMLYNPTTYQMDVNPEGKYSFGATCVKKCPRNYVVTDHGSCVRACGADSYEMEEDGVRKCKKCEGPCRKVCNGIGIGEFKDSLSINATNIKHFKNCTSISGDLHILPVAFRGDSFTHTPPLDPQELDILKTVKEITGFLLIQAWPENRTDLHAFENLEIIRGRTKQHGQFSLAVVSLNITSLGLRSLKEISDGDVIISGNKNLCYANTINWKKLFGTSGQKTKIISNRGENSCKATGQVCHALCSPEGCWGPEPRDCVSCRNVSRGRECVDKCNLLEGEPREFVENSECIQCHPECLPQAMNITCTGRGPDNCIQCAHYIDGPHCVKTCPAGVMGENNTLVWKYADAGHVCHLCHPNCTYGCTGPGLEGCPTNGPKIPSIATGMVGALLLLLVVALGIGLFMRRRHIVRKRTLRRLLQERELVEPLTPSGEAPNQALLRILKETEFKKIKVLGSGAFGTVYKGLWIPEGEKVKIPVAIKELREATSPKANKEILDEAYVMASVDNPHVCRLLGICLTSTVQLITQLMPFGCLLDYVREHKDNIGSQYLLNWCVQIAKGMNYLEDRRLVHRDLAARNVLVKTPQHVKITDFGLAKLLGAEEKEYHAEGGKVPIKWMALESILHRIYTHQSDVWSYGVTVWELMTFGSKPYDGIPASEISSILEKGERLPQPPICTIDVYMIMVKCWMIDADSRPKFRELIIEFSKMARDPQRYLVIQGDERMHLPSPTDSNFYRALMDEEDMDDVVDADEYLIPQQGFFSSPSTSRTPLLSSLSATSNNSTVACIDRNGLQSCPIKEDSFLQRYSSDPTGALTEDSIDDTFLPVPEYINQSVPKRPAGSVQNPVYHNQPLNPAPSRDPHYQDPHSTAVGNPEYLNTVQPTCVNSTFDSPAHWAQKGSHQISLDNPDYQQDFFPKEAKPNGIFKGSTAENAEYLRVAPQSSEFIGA
Sequence of Fibroblast growth factor receptor 1 (P11362 whole entry): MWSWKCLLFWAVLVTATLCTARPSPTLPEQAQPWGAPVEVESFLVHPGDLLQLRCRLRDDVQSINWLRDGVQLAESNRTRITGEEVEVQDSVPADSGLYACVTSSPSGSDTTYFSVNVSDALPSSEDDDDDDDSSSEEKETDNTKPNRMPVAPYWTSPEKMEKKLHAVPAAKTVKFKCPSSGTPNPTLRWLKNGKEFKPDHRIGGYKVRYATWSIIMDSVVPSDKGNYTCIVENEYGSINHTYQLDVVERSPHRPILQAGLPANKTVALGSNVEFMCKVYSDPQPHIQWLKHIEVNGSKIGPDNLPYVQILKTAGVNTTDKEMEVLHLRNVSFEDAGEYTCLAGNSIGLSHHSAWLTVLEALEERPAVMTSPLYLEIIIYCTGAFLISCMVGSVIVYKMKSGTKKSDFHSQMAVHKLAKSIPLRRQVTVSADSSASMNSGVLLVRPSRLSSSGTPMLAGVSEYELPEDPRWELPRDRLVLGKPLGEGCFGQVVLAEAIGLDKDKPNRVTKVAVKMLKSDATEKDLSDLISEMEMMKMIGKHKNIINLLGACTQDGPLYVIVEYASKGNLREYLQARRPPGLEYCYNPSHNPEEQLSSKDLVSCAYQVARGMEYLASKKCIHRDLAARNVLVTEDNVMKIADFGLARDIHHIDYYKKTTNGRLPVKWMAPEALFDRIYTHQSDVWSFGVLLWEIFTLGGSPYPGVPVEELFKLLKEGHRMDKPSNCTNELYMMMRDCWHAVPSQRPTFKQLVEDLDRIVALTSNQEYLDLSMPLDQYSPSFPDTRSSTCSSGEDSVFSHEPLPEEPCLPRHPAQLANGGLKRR
Sequence of Vascular endothelial growth factor receptor 2 (P35968 whole entry): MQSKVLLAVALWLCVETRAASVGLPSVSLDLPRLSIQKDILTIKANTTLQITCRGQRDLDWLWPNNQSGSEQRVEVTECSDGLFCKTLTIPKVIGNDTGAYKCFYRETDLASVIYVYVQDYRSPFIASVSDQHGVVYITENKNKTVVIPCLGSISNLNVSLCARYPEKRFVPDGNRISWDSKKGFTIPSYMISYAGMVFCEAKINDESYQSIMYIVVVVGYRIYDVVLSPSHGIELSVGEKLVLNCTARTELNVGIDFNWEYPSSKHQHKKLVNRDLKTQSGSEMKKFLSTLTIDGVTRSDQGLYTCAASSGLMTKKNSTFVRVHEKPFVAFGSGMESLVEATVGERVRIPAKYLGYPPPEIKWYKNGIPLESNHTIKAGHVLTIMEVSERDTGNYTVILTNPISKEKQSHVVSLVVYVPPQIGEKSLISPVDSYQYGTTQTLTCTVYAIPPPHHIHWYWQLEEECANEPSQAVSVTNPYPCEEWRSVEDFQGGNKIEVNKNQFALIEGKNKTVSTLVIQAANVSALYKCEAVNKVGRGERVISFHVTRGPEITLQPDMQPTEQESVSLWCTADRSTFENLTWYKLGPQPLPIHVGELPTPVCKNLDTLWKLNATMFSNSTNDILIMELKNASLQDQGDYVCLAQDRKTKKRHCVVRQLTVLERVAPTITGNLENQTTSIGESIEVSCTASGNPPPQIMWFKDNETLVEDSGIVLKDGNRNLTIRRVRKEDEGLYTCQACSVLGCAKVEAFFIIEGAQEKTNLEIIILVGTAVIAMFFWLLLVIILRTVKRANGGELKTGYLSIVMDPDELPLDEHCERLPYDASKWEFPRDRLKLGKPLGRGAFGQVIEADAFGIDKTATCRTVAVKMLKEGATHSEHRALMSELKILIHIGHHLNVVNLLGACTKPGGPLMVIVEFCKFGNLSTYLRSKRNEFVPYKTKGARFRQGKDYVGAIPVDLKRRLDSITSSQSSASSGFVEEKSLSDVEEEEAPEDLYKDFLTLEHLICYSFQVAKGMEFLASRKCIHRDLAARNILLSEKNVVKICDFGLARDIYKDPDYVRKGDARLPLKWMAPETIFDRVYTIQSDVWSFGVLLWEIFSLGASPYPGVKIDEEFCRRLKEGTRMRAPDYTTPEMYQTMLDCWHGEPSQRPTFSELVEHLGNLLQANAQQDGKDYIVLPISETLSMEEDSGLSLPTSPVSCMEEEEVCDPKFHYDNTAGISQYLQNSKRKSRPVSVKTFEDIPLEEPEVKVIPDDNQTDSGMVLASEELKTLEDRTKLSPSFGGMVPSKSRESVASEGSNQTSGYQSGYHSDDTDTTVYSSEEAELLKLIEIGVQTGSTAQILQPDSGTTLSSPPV

For `COc1ccc(-c2cc(NC(=O)Nc3nccs3)cc(C(F)(F)F)c2)cn1`, the IC50 in experiment [1] is > 500 nM; in experiment [2], 36200 nM; in experiment [3] it was > 500 nM; in experiment [4], 477 nM.

`O=C(Nc1ccncc1)Nc1cc(-c2cncnc2)cc(C(F)(F)F)c1`: the IC50 with A549 was 2420 nM; in experiment [1], 21.6 nM; in experiment [2] it was 3730 nM; in experiment [3], 28.2 nM; in experiment [4] it was 14.8 nM.

For the molecule `COc1cc(NC(=O)Nc2ccccn2)cc(-c2cccnc2)c1OC`, the IC50 is 13500 nM in the experiment on A549; > 500 nM in experiment [1]; 22400 nM in experiment [2]; 69.3 nM in experiment [3]; 48.8 nM in experiment [4].

On to `COc1cc(NC(=O)Nc2nccs2)cc(-c2cn(C)cn2)c1OC`, for which the IC50 was 420 nM in experiment [1], > 500 nM in experiment [3] and 362 nM in experiment [4].

Take `O=C(Nc1nccs1)Nc1cc(-c2cncnc2)ccc1OC(F)(F)F`: the IC50 in the experiment on A549 came out at 17600 nM; in experiment [1] it was 68.6 nM; in experiment [2] it was 9350 nM; in experiment [3] it was 154 nM; in experiment [4], 71.7 nM.

Turning to `O=C(Nc1ccncc1)Nc1cc(-c2cncnc2)ccc1OC(F)(F)F`, the half-maximal inhibitory concentration (IC50) was 3750 nM in the experiment on A549; 22.2 nM in experiment [1]; 3990 nM in experiment [2]; 32.6 nM in experiment [3]; 18 nM in experiment [4].

Turning to `O=C(Nc1ccncc1)Nc1cc(-c2cccnc2)cc(C(F)(F)F)c1`, the IC50 in the experiment on A549 was > 300000 nM; in experiment [1], 93 nM; in experiment [3] it was 138 nM; in experiment [4], 189 nM.

Consider `Cn1cnc(-c2ccc(OC(F)(F)F)c(NC(=O)Nc3ccncc3)c2)c1`, for which the IC50 is 79300 nM in the experiment with A549; 355 nM in experiment [1]; > 300000 nM in experiment [2]; 371 nM in experiment [3]; 94.8 nM in experiment [4].

As to `COc1ccc(-c2ccc(OC(F)(F)F)c(NC(=O)Nc3ccccn3)c2)cn1`, the IC50 in the experiment on A549 is 177000 nM; in experiment [1], > 500 nM; in experiment [2], 90400 nM; in experiment [3], > 500 nM; in experiment [4], > 500 nM.

Consider `Cn1cnc(-c2cc(NC(=O)Nc3nccs3)cc(C(F)(F)F)c2)c1`, for which the IC50 is 163000 nM in the experiment on A549, 285 nM in experiment [1], > 500 nM in experiment [3] and 311 nM in experiment [4].

On to `O=C(Nc1cc(-c2cccnc2)cc(C(F)(F)F)c1)Nc1nccs1`, for which the concentration for half-maximal inhibition (IC50) in the experiment on A549 came out at 92100 nM; in experiment [1] it was 57.4 nM; in experiment [2], 68200 nM; in experiment [3] it was 99.2 nM; in experiment [4], 78.2 nM.

As to `COc1ccc(-c2ccc(OC(F)(F)F)c(NC(=O)Nc3nccs3)c2)cn1`, the IC50 in the experiment on A549 is 35000 nM; in experiment [1], 390 nM; in experiment [2] it was 44100 nM; in experiment [3] it was > 500 nM; in experiment [4], 495 nM.

As for `O=C(Nc1ccccn1)Nc1cc(-c2cccnc2)ccc1OC(F)(F)F`, the half-maximal inhibitory concentration (IC50) amounted to 19000 nM in the experiment with A549, 86.7 nM in experiment [1], 35600 nM in experiment [2] and 130 nM in experiment [3].

As to `COc1ccc(-c2cc(NC(=O)Nc3ccncc3)cc(OC)c2OC)cn1`, the IC50 in experiment [1] was > 500 nM; in experiment [3], > 500 nM; in experiment [4], 455 nM.

For the molecule `COc1cc(NC(=O)Nc2ccccn2)cc(-c2c[nH]cn2)c1OC`, the IC50 in the experiment with A549 came to 14100 nM; in experiment [1], 33.2 nM; in experiment [2], 21200 nM; in experiment [3] it was 56.5 nM; in experiment [4], 24.8 nM.

In the case of `COc1ccc(-c2ccc(OC(F)(F)F)c(NC(=O)Nc3ccncc3)c2)cn1`, the IC50 was > 300000 nM in the experiment on A549, > 500 nM in experiment [1], 99.8 nM in experiment [3] and 103 nM in experiment [4].

For `O=C(Nc1nccs1)Nc1cc(-c2cccnc2)ccc1OC(F)(F)F`, the IC50 in experiment [1] came out at 107 nM; in experiment [2], 12500 nM; in experiment [3] it was 96.1 nM; in experiment [4], 121 nM.

With `COc1cc(NC(=O)Nc2ccncc2)cc(-c2cccnc2)c1OC`, the IC50 in experiment [1] came to 213 nM; in experiment [2], 73600 nM; in experiment [3], 272 nM; in experiment [4], 131 nM.

For the molecule `O=C(Nc1ccncc1)Nc1cc(-c2cccnc2)ccc1OC(F)(F)F`, the IC50 came out at 39800 nM in the experiment with A549; 128 nM in experiment [1]; 42800 nM in experiment [2]; 104 nM in experiment [3]; 97.2 nM in experiment [4].

`COc1ccc(-c2cc(NC(=O)Nc3ccncc3)cc(C(F)(F)F)c2)cn1`: the IC50 with A549 was 276000 nM; in experiment [1], 364 nM; in experiment [2] it was > 300000 nM; in experiment [3] it was > 500 nM; in experiment [4], > 500 nM.

On to `O=C(Nc1ccccn1)Nc1cc(-c2cncnc2)ccc1OC(F)(F)F`, for which the IC50 in the experiment with A549 is 15200 nM; in experiment [1] it was 52.2 nM; in experiment [2], 21600 nM; in experiment [3] it was 81.3 nM; in experiment [4] it was 26.6 nM.

Regarding `Cn1cnc(-c2cc(NC(=O)Nc3ccncc3)cc(C(F)(F)F)c2)c1`, the IC50 in the experiment on A549 was found to be 39400 nM; in experiment [1], 223 nM; in experiment [2], 235000 nM; in experiment [3], 261 nM; in experiment [4] it was 166 nM.

On to `O=C(Nc1cc(-c2cncnc2)cc(C(F)(F)F)c1)Nc1nccs1`, for which the IC50 in the experiment on A549 is 18300 nM; in experiment [1], 86.7 nM; in experiment [2], 29700 nM; in experiment [3] it was > 500 nM; in experiment [4], 71.8 nM.

As for `COc1cc(NC(=O)Nc2nccs2)cc(-c2cccnc2)c1OC`, the half-inhibitory concentration (IC50) worked out at 106000 nM with A549, 291 nM in experiment [1], 334 nM in experiment [3] and 317 nM in experiment [4].

For `COc1cc(NC(=O)Nc2ccncc2)cc(-c2cncnc2)c1OC`, the IC50 in the experiment on A549 is 17300 nM; in experiment [1] it was 492 nM; in experiment [2], 12900 nM; in experiment [3], > 500 nM; in experiment [4], 290 nM.

Turning to `COc1ccc(-c2cc(NC(=O)Nc3ccccn3)cc(OC)c2OC)cn1`, the IC50 in the experiment with A549 is 24700 nM; in experiment [1] it was 79.4 nM; in experiment [2] it was 32900 nM; in experiment [3], > 500 nM; in experiment [4], 66.6 nM.

Take `CNC(=O)c1cc(Oc2ccc(NC(=O)Nc3ccc(Cl)c(C(F)(F)F)c3)cc2)ccn1` [SORAFENIB]: the IC50 in the experiment with A549 was 2020 nM; in experiment [2], 1580 nM.
